In ChEMBL document CHEMBL3046590, “Design and synthesis of some thiazolotriazolyl esters as anti-inflammatory and analgesic agents” (Med Chem Res, 2012) one finds inhibition in vivo and Activity data, which are given here for four compounds.

The structures appear in SMILES notation.

The subject of data set [1] is Mus musculus. As to the kind of experiment: Analgesic activity in Mus musculus BALB/c (mouse) assessed as inhibition of acetic acid-induced writhing at 100 mg/kg, po administered 1 hr followed by acetic acid challenge measured for 10 min. It counts as functional.
The subject of data set [2] is Mus musculus. As to the kind of experiment: Antioxidant activity in Mus musculus BALB/c (mouse) stomach assessed as TBARS level at 100 mg/kg, po (reference value: 80.4 +/- 5.4 nmol/g ). It counts as functional.
The subject of data set [3] is Mus musculus. The data set is described as follows: Toxicity in Mus musculus BALB/c (mouse) assessed as mortality at 50 to 200 mg/kg, po after 72 hr. The settings on record: in vivo. Format: organism-based. Further details: dose 50-200 mg/kg, route oral.
The test system of data set [4] is Mus musculus. The data set is described as follows: Toxicity in Mus musculus BALB/c (mouse) assessed as behavioral changes at 50 to 200 mg/kg, po after 72 hr. Format: organism-based. Also noted: dose 50-200 mg/kg, route oral. The settings on record: in vivo.
The subject of data set [5] is Mus musculus. As to the kind of experiment: Anti-inflammatory activity in Mus musculus BALB/c (mouse) assessed as inhibition of carrageenan-induced paw swelling at 100 mg/kg, po administered 1 hr followed by carrageenan challenge measured at 270 min relative to control. Format: functional. (The carrageenan paw model is a standard test of acute inflammation.)
Data set [6] deals with Mus musculus. As to the kind of experiment: Anti-inflammatory activity in Mus musculus BALB/c (mouse) assessed as carrageenan-induced paw swelling at 200 mg/kg, po administered 1 hr followed by carrageenan challenge measured at 90 min (reference value: 39 +/- 5.6 x 10^-2 mm). Format: functional.
The test system of data set [7] is Mus musculus. The data set is described as follows: Anti-inflammatory activity in Mus musculus BALB/c (mouse) assessed as carrageenan-induced paw swelling at 100 mg/kg, po administered 1 hr followed by carrageenan challenge measured at 180 min (reference value: 52 +/- 4.6 x 10^-2 mm). Format: functional.
The test system of data set [8] is Mus musculus. The data set is described as follows: Anti-inflammatory activity in Mus musculus BALB/c (mouse) assessed as carrageenan-induced paw swelling at 100 mg/kg, po administered 1 hr followed by carrageenan challenge measured at 360 min (reference value: 105 +/- 4.5 x 10^-2 mm). Format: functional.
Data set [9] has as its system Mus musculus. As to the kind of experiment: Anti-inflammatory activity in Mus musculus BALB/c (mouse) assessed as carrageenan-induced paw swelling at 100 mg/kg, po administered 1 hr followed by carrageenan challenge measured at 270 min (reference value: 78 +/- 8.4 x 10^-2 mm). Format: functional.
Data set [10] concerns Mus musculus. The data set is described as follows: Anti-inflammatory activity in Mus musculus BALB/c (mouse) assessed as carrageenan-induced paw swelling at 200 mg/kg, po administered 1 hr followed by carrageenan challenge measured at 270 min (reference value: 78 +/- 8.4 x 10^-2 mm). Format: functional.
The test system of data set [11] is Mus musculus. The data set is described as follows: Anti-inflammatory activity in Mus musculus BALB/c (mouse) assessed as inhibition of carrageenan-induced paw swelling at 100 mg/kg, po administered 1 hr followed by carrageenan challenge measured at 180 min relative to control. Format: functional.
In data set [12] the test system is Mus musculus. The data set is described as follows: Anti-inflammatory activity in Mus musculus BALB/c (mouse) assessed as carrageenan-induced paw swelling at 200 mg/kg, po administered 1 hr followed by carrageenan challenge measured at 360 min (reference value: 105 +/- 4.5 x 10^-2 mm). It counts as functional.
For data set [13], the system named is Mus musculus. The data set is described as follows: Anti-inflammatory activity in Mus musculus BALB/c (mouse) assessed as carrageenan-induced paw swelling at 50 mg/kg, po administered 1 hr followed by carrageenan challenge measured at 180 min (reference value: 52 +/- 4.6 x 10^-2 mm). It counts as functional.
For data set [14], the system named is Mus musculus. The data set is described as follows: Anti-inflammatory activity in Mus musculus BALB/c (mouse) assessed as carrageenan-induced paw swelling at 200 mg/kg, po administered 1 hr followed by carrageenan challenge measured at 180 min (reference value: 52 +/- 4.6 x 10^-2 mm). Format: functional.
Data set [15] has as its system Mus musculus. As to the kind of experiment: Anti-inflammatory activity in Mus musculus BALB/c (mouse) assessed as carrageenan-induced paw swelling at 50 mg/kg, po administered 1 hr followed by carrageenan challenge measured at 270 min (reference value: 78 +/- 8.4 x 10^-2 mm). It counts as functional.
In data set [16] the test system is Mus musculus. The data set is described as follows: Anti-inflammatory activity in Mus musculus BALB/c (mouse) assessed as carrageenan-induced paw swelling at 50 mg/kg, po administered 1 hr followed by carrageenan challenge measured at 360 min (reference value: 105 +/- 4.5 x 10^-2 mm). Format: functional.
For data set [17], the system named is Mus musculus. As to the kind of experiment: Anti-inflammatory activity in Mus musculus BALB/c (mouse) assessed as carrageenan-induced paw swelling at 100 mg/kg, po administered 1 hr followed by carrageenan challenge measured at 90 min (reference value: 39 +/- 5.6 x 10^-2 mm). Format: functional.
Data set [18] concerns Mus musculus. The data set is described as follows: Anti-inflammatory activity in Mus musculus BALB/c (mouse) assessed as inhibition of carrageenan-induced paw swelling at 100 mg/kg, po administered 1 hr followed by carrageenan challenge measured at 360 min relative to control. It counts as functional.
The test system of data set [19] is Mus musculus. The data set is described as follows: Anti-inflammatory activity in Mus musculus BALB/c (mouse) assessed as carrageenan-induced paw swelling at 50 mg/kg, po administered 1 hr followed by carrageenan challenge measured at 90 min (reference value: 39 +/- 5.6 x 10^-2 mm). Format: functional.

By inhibition in vivo is commonly meant the drop in the measured response relative to a control, in per cent. Regarding `CC(=O)Oc1ccccc1C(=O)O` [ASPIRIN], the inhibition in vivo at 100 mg/kg with Mus musculus [1] turned out to be 50%. Also, the Activity in the data set on Mus musculus [2] is 121 nmol/g; in the data set on Mus musculus [3], “Non-toxic”; with Mus musculus [4], “Non-toxic”.

For the compound `CCOC(=O)Cc1csc2nc(-c3ccccc3)nn12`, the inhibition in vivo at 100 mg/kg in the data set on Mus musculus [5] stood at 31.1%; in the data set with Mus musculus [11], 23.1%; in the data set on Mus musculus [18], 16.7%. Also, the Activity with Mus musculus [6] is recorded as 35.2 ×10⁻² mm; in the data set with Mus musculus [7], 40 ×10⁻² mm; in the data set with Mus musculus [8] it was 87.5 ×10⁻² mm; with Mus musculus [9] it was 53.7 ×10⁻² mm; with Mus musculus [10], 75 ×10⁻² mm; in the data set on Mus musculus [12], 105.4 ×10⁻² mm. Further, the Activity in the data set with Mus musculus [2] is on record as 174.1 nmol/g; in the data set with Mus musculus [13], 53.5 ×10⁻² mm; in the data set with Mus musculus [14], 48.1 ×10⁻² mm; with Mus musculus [15] it was 79.7 ×10⁻² mm; in the data set on Mus musculus [16] it was 102 ×10⁻² mm; in the data set on Mus musculus [3], “Non-toxic”. In addition, the Activity with Mus musculus [17] was 45 ×10⁻² mm; in the data set on Mus musculus [4], “Non-toxic”; in the data set on Mus musculus [19], 76.3 ×10⁻² mm.

On to `CCOC(=O)Cc1csc2nc(-c3ccc(OC)cc3)nn12`, for which the inhibition in vivo at 100 mg/kg in the data set with Mus musculus [1] turned out to be 24.3%; in the data set on Mus musculus [11], 24.4%. The Activity with Mus musculus [6] was found to be 43.7 ×10⁻² mm; in the data set with Mus musculus [7] it was 38.3 ×10⁻² mm; with Mus musculus [8], 122.5 ×10⁻² mm; in the data set with Mus musculus [9], 90 ×10⁻² mm; in the data set on Mus musculus [10] it was 79 ×10⁻² mm; in the data set with Mus musculus [12], 110.8 ×10⁻² mm. The Activity is listed as 128.7 nmol/g in the data set with Mus musculus [2]; 65.4 ×10⁻² mm with Mus musculus [13]; 52.2 ×10⁻² mm in the data set with Mus musculus [14]; 76.2 ×10⁻² mm in the data set on Mus musculus [15]; 96.1 ×10⁻² mm in the data set on Mus musculus [16]; “Non-toxic” in the data set with Mus musculus [3]. The Activity is 47.9 ×10⁻² mm in the data set with Mus musculus [17], “Non-toxic” with Mus musculus [4] and 71.2 ×10⁻² mm with Mus musculus [19].

`CCOC(=O)c1sc2nc(-c3ccc(Cl)cc3)nn2c1C`: the inhibition in vivo at 100 mg/kg is 89.7% in the data set on Mus musculus [1], 17.7% in the data set on Mus musculus [11] and 28.2% with Mus musculus [18]. For the same compound, the Activity in the data set on Mus musculus [6] amounted to 35.7 ×10⁻² mm; in the data set on Mus musculus [7], 42.8 ×10⁻² mm; in the data set with Mus musculus [8], 75.4 ×10⁻² mm; with Mus musculus [9], 69.9 ×10⁻² mm; in the data set on Mus musculus [10] it was 69.6 ×10⁻² mm; with Mus musculus [12] it was 98.3 ×10⁻² mm. Further, the Activity in the data set on Mus musculus [2] was 116.9 nmol/g; in the data set on Mus musculus [13], 70 ×10⁻² mm; in the data set on Mus musculus [14], 45.7 ×10⁻² mm; in the data set on Mus musculus [15] it was 91.1 ×10⁻² mm; in the data set on Mus musculus [16], 117.8 ×10⁻² mm; with Mus musculus [3] it was “Non-toxic”. Also, the values for the Activity in the data set on Mus musculus [17], with Mus musculus [4] and in the data set on Mus musculus [19] were 45.5 ×10⁻² mm, “Non-toxic” and 66.1 ×10⁻² mm, respectively.
